Experimental data as given in patent publication US12187728B2 (Raze Therapeutics, Inc., priority 2015, dated 2025).

Molecular target: T1, Human MTHFD2 (Homo sapiens, UniProt P13995)
T1 construct: residues 36-350 in Uniport ID P13995; His6 (N); made in house; host or cells: E. coli
T1 sequence (P13995 36-350): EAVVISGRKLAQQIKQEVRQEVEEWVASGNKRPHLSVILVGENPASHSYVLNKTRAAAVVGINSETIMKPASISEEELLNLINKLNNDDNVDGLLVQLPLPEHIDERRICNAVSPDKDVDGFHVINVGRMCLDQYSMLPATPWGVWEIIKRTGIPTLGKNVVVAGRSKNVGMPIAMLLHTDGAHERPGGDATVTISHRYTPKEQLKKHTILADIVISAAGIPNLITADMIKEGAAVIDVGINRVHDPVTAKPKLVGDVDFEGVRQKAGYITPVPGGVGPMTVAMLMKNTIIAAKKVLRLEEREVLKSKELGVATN
Test: MTHFD2 Activity Assay (dehydrogenase activity, diaphorase/resazurin coupled fluorescence)
Format: biochemical
Settings: inhibitory activity (IC50 and/or binding constant); 0.2 nM MTHFD2, 11 concentrations
In short: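 His6-tagged MTHFD2 (res. 36-350), E. coli-expressed, at 0.2 nM preincubated with compound 15 min in Hepes pH 8.0/MgCl2/KH2PO4 buffer; 70 μM CH2-THF, 1 mM NAD+ added with resazurin/diaphorase, 30 min, EDTA stop. Resorufin fluorescence (ex 525/em 598); IC50 from 11-point 4-parameter fit.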

Structure (SMILES)	IC50 [nM]
Cn1c(N[C@H]2CCC[C@H](C(=O)O)C2)nc2c1c(=O)n(Cc1ccc(Cl)c(Cl)c1)c(=O)n2C (single isomer, unassigned) [Example 209, (1S,3S)-3-(1-(3,4-dichlorobenzyl)-3,7-dimethyl-2,6-dioxo-2,3,6,7-tetrahydro-1H-purin-8-ylamino)cyclohexanecarboxylic or (1R,3R)-3-(1-(3,4-dichlorobenzyl)-3,7-dimethyl-2,6-dioxo-2,3,6,7-tetrahydro-1H-purin-8-ylamino)cyclohexanecarboxylic acid]	10 to 1000
Cn1c(Nc2ccncc2)nc2c1c(=O)n(Cc1cc3c(Cl)cccc3[nH]1)c(=O)n2C [Example 285, 1-((4-chloro-1H-indol-2-yl)methyl)-3,7-dimethyl-8-(pyridin-4-ylamino)-1H-purine-2,6(3H,7H)-dione]	10 to 1000
Cn1c(=O)n(Cc2ccc(Cl)c(Cl)c2)c(=O)c2[nH]cnc21 [Example 251, 1-(3,4-dichlorobenzyl)-3-methyl-1H-purine-2,6(3H,7H)-dione]	> 10000
Cn1c(=O)n(Cc2cc3c(Cl)cccc3[nH]2)c(=O)c2c1nc(NC1CCCC(C(=O)O)C1)n2CCN (centres unmarked) [Example 418, 3-(7-(2-aminoethyl)-1-((4-chloro-1H-indol-2-yl)methyl)-3-methyl-2,6-dioxo-2,3,6,7-tetrahydro-1H-purin-8-ylamino)cyclohexanecarboxylic acid]	10 to 1000
Cn1c(C(N)C2COC2)nc2c1c(=O)n(Cc1cc3c(Cl)cccc3[nH]1)c(=O)n2C (centres unmarked) [Example 467, 8-[amino(oxetan-3-yl)methyl]-1-[(4-chloro-1H-indol-2-yl)methyl]-3,7-dimethyl-purine-2,6-dione]	5000 to 10000
Cn1c(N[C@@H]2CCCC[C@H]2O)nc2c1c(=O)n(Cc1ccc(Cl)c(Cl)c1)c(=O)n2C [Example 108, 1-(3,4-dichlorobenzyl)-8-((1R,2R)-2-hydroxycyclohexylamino)-3,7-dimethyl-1H-purine-2,6(3H,7H)-dione]	1000 to 5000
Cn1c(=O)n(Cc2ccc(Cl)c(Cl)c2)c(=O)c2c1nc(NC1CCCC(C(=O)O)C1)n2CC(N)=O (centres unmarked) [Example 306, 3-(7-(2-amino-2-oxoethyl)-1-(3,4-dichlorobenzyl)-3-methyl-2,6-dioxo-2,3,6,7-tetrahydro-1H-purin-8-ylamino)cyclohexanecarboxylic acid]	10 to 1000
C/C(=N/O)c1nc2c(c(=O)n(Cc3cc4c(Cl)cccc4[nH]3)c(=O)n2C)n1C [Example 481, (Z)-1-((4-chloro-1H-indol-2-yl)methyl)-8-(1-(hydroxyimino)ethyl)-3,7-dimethyl-1H-purine-2,6(3H,7H)-dione or (E)-1-((4-chloro-1H-indol-2-yl)methyl)-8-(1-(hydroxyimino)ethyl)-3,7-dimethyl-1H-purine-2,6(3H,7H)-dione]	10 to 1000
Cn1c(N[C@H]2C[C@@H](CO)C2)nc2c1c(=O)n(Cc1ccc(Cl)c(Cl)c1)c(=O)n2C [Example 261, (±)-1-(3,4-dichlorobenzyl)-8-((cis)-3-(hydroxymethyl)cyclobutylamino)-3,7-dimethyl-1H-purine-2,6(3H,7H)-dione]	10 to 1000
Cn1c(NCc2ccccc2)nc2c1c(=O)n(Cc1ccc(Cl)c(Cl)c1)c(=O)n2C [Example 137, 8-(benzylamino)-1-(3,4-dichlorobenzyl)-3,7-dimethyl-1H-purine-2,6(3H,7H)-dione]	5000 to 10000
Cn1c(NC2CCCNC2=O)nc2c1c(=O)n(Cc1ccc(Cl)c(Cl)c1)c(=O)n2C (racemic) [Example 89, (±)-1-[(3,4-dichlorophenyl)methyl]-3,7-dimethyl-8-[(2-oxopiperidin-3-yl)amino]-2,3,6,7-tetrahydro-1H-purine-2,6-dione]	10 to 1000
Cn1c(C(N)c2ccccc2)nc2c1c(=O)n(Cc1cc3c(Cl)cccc3[nH]1)c(=O)n2C (centres unmarked) [Example 411, 8-(amino(phenyl)methyl)-1-((4-chloro-1H-indol-2-yl)methyl)-3,7-dimethyl-1H-purine-2,6(3H,7H)-dione]	10 to 1000
CNC(C)c1nc2c(c(=O)n(Cc3cc4c(Cl)cccc4[nH]3)c(=O)n2C)n1C (centres unmarked) [Example 438, 1-[(4-chloro-1H-indol-2-yl)methyl]-3,7-dimethyl-8-[1-(methylamino)ethyl]purine-2,6-dione]	10 to 1000
Cn1c(C2CCCNC2)nc2c1c(=O)n(Cc1cc3c(Cl)cccc3[nH]1)c(=O)n2C (centres unmarked) [Example 391, 1-[(4-chloro-1H-indol-2-yl)methyl]-3,7-dimethyl-8-(3-piperidyl)purine-2,6-dione]	10 to 1000
C[C@@H](O)CNc1nc2c(c(=O)n(Cc3ccc(Cl)cc3)c(=O)n2C)n1C [Example 17, 1-[(4-chlorophenyl)methyl]-8-{[(2R)-2-hydroxypropyl]amino}-3,7-dimethyl-2,3,6,7-tetrahydro-1H-purine-2,6-dione]	5000 to 10000
Cn1c(NCC(=O)O)nc2c1c(=O)n(Cc1ccc(Cl)c(Cl)c1)c(=O)n2C [Example 134, 2-(1-(3,4-dichlorobenzyl)-3,7-dimethyl-2,6-dioxo-2,3,6,7-tetrahydro-1H-purin-8-ylamino)acetic acid]	1000 to 5000
Cn1c(Nc2ccccc2C#N)nc2c1c(=O)n(Cc1ccc(Cl)c(Cl)c1)c(=O)n2C [Example 142, 2-(1-(3,4-dichlorobenzyl)-3,7-dimethyl-2,6-dioxo-2,3,6,7-tetrahydro-1H-purin-8-ylamino)benzonitrile]	1000 to 5000
Cn1c(Nc2ccc(CO)cc2)nc2c1c(=O)n(Cc1cc3c(Cl)cccc3[nH]1)c(=O)n2C [Example 432, 1-((4-chloro-1H-indol-2-yl)methyl)-8-(4-(hydroxymethyl)phenylamino)-3,7-dimethyl-1H-purine-2,6(3H,7H)-dione]	10 to 1000
Cn1c(N[C@H]2CC[C@@H](O)C2)nc2c1c(=O)n(Cc1cc3ccccc3[nH]1)c(=O)n2C (racemic) [Example 155, (±)-1-((1H-indol-2-yl)methyl)-8-((cis)-3-hydroxycyclopentylamino)-3,7-dimethyl-1H-purine-2,6(3H,7H)-dione]	10 to 1000
Cn1c(Nc2ccncn2)nc2c1c(=O)n(Cc1cc3ccccc3[nH]1)c(=O)n2C [Example 216, 1-((1H-indol-2-yl)methyl)-3,7-dimethyl-8-(pyrimidin-4-ylamino)-1H-purine-2,6(3H,7H)-dione]	10 to 1000
CC(c1ccc(Cl)c(Cl)c1)n1c(=O)c2c(nc(NCCCO)n2C)n(C)c1=O (centres unmarked) [Example 72, 1-[1-(3,4-dichlorophenyl)ethyl]-8-[(3-hydroxypropyl)amino]-3,7-dimethyl-2,3,6,7-tetrahydro-1H-purine-2,6-dione]	> 10000
Cn1c(Nc2ccc(C(=O)O)cc2)nc2c1c(=O)n(Cc1cc3c(Cl)cccc3[nH]1)c(=O)n2C [Example 331, 4-[[1-[(4-chloro-1H-indol-2-yl)methyl]-3,7-dimethyl-2,6-dioxo-purin-8-yl]amino]benzoic acid]	10 to 1000
Cn1c(Nc2ccc(CO)cc2)nc2c1c(=O)n(Cc1ccc(Cl)c(Cl)c1)c(=O)n2C [Example 298, 1-(3,4-dichlorobenzyl)-8-((4-(hydroxymethyl)phenyl)amino)-3,7-dimethyl-3,7-dihydro-1H-purine-2,6-dione]	10 to 1000
Cn1cnc2c(=O)n(Cc3ccc(Cl)c(Cl)c3)c(=O)n(C)c21 [Example 253]	> 10000
CC(C)C(N)c1nc2c(c(=O)n(Cc3cc4c(Cl)cccc4[nH]3)c(=O)n2C)n1C (centres unmarked) [Example 437, 8-(1-amino-2-methyl-propyl)-1-[(4-chloro-1H-indol-2-yl)methyl]-3,7-dimethyl-purine-2,6-dione]	10 to 1000
Cn1c(N[C@@H]2CCNC2)nc2c1c(=O)n(Cc1ccc(Cl)c(Cl)c1)c(=O)n2C [Example 60, 1-[(3,4-dichlorophenyl)methyl]-3,7-dimethyl-8-{[(3R)-pyrrolidin-3-yl]amino}-2,3,6,7-tetrahydro-1H-purine-2,6-dione]	1000 to 5000
Cn1c(N[C@@H]2CC[C@@H](O)C2)nc2c1c(=O)n(Cc1ccc(C#N)c(Cl)c1)c(=O)n2C (racemic) [Example 247, (±)-2-chloro-4-((8-((trans)-3-hydroxycyclopentylamino)-3,7-dimethyl-2,6-dioxo-2,3,6,7-tetrahydro-1H-purin-1-yl)methyl)benzonitrile]	1000 to 5000
Cn1c(N[C@H]2CC[C@H](N)CC2)nc2c1c(=O)n(Cc1ccc(Cl)c(Cl)c1)c(=O)n2C [Example 38, (±)-1-[(3,4-dichlorophenyl)methyl]-3,7-dimethyl-8-{[(trans)-4-aminocyclohexyl]amino}-2,3,6,7-tetrahydro-1H-purine-2,6-dione]	1000 to 5000
Cn1c(N[C@H]2CC[C@@H](O)C2)nc2c1c(=O)n(Cc1ccc(C(F)(F)F)cc1)c(=O)n2C (single isomer, unassigned) [Example 156, 8-((1S,3R)-3-hydroxycyclopentylamino)-3,7-dimethyl-1-(4-(trifluoromethyl)benzyl)-1H-purine-2,6(3H,7H)-dione or 8-((1R,3S)-3-hydroxycyclopentylamino)-3,7-dimethyl-1-(4-(trifluoromethyl)benzyl)-1H-purine-2,6(3H,7H)-dione]	1000 to 5000
